Data taken from ChEMBL document CHEMBL1201862, “PubChem BioAssay data set” (2004).
The source made the active and inactive calls.

Key:
[1] = biological target: Eukaryotic translation initiation factor 4E (Mus musculus, UniProt P63073); assay: blockers of eIF4G binding by eIF4E – biochemical, TR-FRET, dose response (AID 855); format: functional;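 also: potency for disrupting eIF4E binding to eIF4GI seen as loss of FRET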
[2] = biological target: T1, Voltage-gated N-type calcium channel alpha-1B subunit/Amyloid beta A4 precursor protein-binding family A member 1 (Homo sapiens, UniProt Q00975+Q02410); format: protein assay
T1 sequence (Q00975 whole entry): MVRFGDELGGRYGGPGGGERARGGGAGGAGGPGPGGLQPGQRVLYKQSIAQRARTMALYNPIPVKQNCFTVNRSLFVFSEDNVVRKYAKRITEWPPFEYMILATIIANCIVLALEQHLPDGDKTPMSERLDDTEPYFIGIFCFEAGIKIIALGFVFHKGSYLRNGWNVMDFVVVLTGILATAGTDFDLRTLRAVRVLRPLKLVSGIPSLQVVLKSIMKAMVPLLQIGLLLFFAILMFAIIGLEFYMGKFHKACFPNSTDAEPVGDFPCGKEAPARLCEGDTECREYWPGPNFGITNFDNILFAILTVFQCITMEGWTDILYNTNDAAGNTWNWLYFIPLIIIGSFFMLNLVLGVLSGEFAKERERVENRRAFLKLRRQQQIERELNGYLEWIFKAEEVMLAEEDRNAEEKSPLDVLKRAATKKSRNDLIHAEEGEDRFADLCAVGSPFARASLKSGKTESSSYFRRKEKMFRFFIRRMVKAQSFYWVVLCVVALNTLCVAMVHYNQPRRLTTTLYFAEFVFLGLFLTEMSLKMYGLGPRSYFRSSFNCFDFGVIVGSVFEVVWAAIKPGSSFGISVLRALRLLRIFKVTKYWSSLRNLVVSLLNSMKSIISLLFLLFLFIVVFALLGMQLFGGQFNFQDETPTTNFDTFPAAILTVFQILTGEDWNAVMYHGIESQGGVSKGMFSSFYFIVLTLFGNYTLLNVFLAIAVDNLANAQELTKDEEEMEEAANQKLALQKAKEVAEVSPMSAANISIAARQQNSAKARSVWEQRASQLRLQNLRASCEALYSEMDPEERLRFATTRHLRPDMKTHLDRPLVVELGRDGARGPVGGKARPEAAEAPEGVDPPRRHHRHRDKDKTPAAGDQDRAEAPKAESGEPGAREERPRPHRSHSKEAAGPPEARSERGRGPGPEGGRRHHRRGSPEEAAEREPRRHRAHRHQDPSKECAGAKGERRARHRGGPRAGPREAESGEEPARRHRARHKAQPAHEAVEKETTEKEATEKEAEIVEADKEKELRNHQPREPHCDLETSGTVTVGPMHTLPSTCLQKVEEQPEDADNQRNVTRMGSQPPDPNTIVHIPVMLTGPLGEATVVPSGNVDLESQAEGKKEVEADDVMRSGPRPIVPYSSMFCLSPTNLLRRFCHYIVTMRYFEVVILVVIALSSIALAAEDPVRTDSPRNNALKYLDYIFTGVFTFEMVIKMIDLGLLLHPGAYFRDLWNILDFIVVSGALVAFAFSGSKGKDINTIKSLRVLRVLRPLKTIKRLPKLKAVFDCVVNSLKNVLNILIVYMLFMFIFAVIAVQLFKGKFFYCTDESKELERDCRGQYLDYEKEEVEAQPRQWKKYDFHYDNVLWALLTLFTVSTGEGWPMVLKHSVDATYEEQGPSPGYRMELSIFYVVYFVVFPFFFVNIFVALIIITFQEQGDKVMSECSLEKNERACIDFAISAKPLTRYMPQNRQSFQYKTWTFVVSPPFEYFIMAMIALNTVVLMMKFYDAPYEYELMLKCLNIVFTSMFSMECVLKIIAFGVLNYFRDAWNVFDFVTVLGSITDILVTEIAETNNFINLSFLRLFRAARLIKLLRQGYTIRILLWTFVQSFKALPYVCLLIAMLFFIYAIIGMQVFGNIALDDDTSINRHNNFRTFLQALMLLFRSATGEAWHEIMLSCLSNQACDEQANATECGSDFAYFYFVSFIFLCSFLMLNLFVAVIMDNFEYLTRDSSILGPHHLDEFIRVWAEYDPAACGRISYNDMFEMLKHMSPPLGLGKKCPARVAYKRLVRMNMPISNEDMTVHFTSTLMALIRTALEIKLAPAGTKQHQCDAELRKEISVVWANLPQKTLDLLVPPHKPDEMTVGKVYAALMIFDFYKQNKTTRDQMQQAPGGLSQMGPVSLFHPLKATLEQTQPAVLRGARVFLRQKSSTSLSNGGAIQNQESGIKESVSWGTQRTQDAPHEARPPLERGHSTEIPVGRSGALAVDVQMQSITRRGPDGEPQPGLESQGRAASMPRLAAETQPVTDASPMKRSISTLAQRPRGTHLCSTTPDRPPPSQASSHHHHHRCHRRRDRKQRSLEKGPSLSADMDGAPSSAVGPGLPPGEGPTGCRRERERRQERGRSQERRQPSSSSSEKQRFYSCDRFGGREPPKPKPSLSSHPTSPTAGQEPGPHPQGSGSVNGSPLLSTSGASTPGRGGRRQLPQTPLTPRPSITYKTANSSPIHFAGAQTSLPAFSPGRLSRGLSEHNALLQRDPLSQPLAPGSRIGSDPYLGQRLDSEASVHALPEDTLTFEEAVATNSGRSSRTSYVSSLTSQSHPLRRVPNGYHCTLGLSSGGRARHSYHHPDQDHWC
T1 sequence (Q02410 whole entry): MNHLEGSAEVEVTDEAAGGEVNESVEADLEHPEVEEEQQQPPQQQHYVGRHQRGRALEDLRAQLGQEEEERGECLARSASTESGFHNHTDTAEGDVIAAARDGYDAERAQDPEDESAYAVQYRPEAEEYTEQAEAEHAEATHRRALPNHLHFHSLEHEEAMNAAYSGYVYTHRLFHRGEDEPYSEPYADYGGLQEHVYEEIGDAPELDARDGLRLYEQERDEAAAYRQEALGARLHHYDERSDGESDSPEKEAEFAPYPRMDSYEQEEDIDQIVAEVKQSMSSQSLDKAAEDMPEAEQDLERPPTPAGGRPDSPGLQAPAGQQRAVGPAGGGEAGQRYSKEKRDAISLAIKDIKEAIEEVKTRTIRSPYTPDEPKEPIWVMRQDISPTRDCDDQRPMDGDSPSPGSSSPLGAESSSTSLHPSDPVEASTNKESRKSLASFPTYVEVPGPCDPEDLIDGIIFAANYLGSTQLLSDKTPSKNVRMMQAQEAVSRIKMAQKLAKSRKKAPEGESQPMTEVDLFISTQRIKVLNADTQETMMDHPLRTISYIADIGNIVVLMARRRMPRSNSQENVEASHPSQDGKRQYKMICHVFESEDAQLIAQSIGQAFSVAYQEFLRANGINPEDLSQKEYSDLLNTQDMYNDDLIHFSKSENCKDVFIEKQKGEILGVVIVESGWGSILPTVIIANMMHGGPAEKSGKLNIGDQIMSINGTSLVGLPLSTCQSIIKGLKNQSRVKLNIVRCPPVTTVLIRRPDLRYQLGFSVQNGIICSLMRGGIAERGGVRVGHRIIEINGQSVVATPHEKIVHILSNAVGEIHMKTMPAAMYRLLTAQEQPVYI

[3] = biological target: T1, Voltage-gated N-type calcium channel alpha-1B subunit/Amyloid beta A4 precursor protein-binding family A member 1; format: protein assay; remark: listed apart in the source
[4] = biological target: Mitogen-activated protein kinase 10 (Homo sapiens, UniProt P53779); assay: Dose response biochemical screening assay for inhibitors of c-Jun N-Terminal Kinase 3 (JNK3). [Related pubchem assays: 746 ]
Sequence of Mitogen-activated protein kinase 10 (P53779 whole entry): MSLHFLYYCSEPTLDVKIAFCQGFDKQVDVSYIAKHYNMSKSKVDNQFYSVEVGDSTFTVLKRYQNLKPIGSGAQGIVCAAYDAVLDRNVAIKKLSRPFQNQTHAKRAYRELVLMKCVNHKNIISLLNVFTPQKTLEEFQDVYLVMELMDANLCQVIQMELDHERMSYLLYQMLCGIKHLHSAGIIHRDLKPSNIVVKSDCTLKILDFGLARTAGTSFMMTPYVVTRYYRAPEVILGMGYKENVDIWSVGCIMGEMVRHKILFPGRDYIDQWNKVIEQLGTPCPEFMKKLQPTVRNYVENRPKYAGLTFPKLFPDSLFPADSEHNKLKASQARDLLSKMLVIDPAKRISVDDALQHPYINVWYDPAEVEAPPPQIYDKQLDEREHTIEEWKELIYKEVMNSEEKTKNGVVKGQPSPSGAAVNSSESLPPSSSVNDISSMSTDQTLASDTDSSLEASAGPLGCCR

Cytochrome P450 2D6 = Cytochrome P450 2D6 (Homo sapiens, UniProt P10635);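 also: CYP2D6 member of a cytochrome P450 panel assay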
Sequence of Cytochrome P450 2D6 (P10635 whole entry): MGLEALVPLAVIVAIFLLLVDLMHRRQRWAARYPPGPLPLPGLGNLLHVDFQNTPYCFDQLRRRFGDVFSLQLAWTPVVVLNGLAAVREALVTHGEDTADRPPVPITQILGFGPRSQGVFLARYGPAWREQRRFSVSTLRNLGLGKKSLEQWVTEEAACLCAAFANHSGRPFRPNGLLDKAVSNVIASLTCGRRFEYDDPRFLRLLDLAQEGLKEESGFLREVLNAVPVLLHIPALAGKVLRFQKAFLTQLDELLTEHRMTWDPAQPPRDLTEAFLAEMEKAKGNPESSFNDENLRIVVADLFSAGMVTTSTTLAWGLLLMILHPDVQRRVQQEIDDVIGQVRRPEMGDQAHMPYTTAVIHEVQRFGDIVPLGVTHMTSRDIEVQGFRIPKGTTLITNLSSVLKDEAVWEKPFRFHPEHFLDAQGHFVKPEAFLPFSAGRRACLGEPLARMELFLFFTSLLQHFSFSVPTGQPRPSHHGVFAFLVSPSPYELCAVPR

Vero [5] = assay: cells; format: functional; conditions: Chlorocebus sabaeus
Vero [6] = assay: cells; format: functional, cell-based; conditions: Chlorocebus sabaeus
cells [7] = format: functional
[8] = THP-1 cell cytotoxicity, dose response, cytotoxicity control for non-replicating M. tuberculosis project (AID 489025); format: functional
[9] = NIH3T3 cell viability loss – ATP luminescence, mouse fibroblasts, counter-screen, dose response (AID 2010); format: functional, cell-based;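 also: cells exposed to compound for about 90 hours before reading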
[10] = Trypanosoma cruzi growth suppression in host cells – NIH3T3 host cells, beta-gal luminescence, confirmation (AID 2044); format: functional, cell-based;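 also: intracellular parasites grown in NIH/3T3 mouse fibroblasts as host cells; luminescent beta-galactosidase reporter signal from transgenic T. cruzi replicating inside host cells; inhibitors lower the luminescence signal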
Genome polyprotein = Genome polyprotein (dengue virus type 2, UniProt P29990); assay: flavivirus cap methylation enzyme inhibition – biochemical, confirmation dose response, primary screen (AID 588689); format: functional
[11] = biological target: T2, Histone-lysine N-methyltransferase NSD2 (Homo sapiens, UniProt O96028); format: biochemical
T2 sequence (O96028 whole entry): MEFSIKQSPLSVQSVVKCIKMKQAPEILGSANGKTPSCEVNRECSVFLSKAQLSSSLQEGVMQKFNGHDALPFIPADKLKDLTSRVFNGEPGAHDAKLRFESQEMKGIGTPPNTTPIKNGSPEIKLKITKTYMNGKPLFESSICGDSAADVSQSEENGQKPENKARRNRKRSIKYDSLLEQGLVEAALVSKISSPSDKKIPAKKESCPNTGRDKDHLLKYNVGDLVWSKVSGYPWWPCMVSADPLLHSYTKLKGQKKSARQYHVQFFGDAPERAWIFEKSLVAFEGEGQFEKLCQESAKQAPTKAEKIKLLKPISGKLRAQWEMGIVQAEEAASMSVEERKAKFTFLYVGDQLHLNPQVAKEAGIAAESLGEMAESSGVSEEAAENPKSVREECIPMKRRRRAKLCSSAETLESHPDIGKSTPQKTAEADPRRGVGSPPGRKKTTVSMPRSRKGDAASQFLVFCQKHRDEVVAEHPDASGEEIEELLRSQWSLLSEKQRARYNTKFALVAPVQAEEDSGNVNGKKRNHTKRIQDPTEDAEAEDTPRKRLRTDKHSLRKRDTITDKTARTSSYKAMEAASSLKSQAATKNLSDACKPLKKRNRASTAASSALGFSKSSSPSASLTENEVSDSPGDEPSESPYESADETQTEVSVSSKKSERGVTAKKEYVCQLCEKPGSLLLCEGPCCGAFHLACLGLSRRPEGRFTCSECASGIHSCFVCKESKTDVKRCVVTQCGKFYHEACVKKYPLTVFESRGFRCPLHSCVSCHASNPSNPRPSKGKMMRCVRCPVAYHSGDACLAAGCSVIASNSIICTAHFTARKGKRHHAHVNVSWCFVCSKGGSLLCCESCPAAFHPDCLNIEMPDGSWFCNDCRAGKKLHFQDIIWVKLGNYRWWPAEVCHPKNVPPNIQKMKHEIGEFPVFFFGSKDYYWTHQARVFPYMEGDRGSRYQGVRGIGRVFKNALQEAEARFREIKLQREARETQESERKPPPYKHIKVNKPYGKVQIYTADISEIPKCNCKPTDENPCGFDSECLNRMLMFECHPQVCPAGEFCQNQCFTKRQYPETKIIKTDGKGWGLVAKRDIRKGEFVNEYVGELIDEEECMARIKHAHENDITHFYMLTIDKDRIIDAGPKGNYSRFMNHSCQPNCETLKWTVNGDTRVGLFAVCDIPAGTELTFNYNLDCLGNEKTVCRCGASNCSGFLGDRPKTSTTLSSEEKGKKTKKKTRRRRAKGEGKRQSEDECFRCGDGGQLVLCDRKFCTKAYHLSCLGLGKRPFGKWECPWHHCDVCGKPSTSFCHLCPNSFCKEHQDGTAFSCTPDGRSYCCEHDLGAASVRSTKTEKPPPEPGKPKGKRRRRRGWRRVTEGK

[12] = biological target: T3, Short transient receptor potential channel 4 (Mus musculus, UniProt Q9QUQ5); assay: block of DAMGO-driven TRPC4 calcium entry – cell-based, HEK293 TRPC4/mu-opioid, Fluo-4 calcium, dose response (AID 434942); format: functional;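 also: potency of inhibitors blocking the TRPC4 calcium response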
T3 sequence (Q9QUQ5 whole entry): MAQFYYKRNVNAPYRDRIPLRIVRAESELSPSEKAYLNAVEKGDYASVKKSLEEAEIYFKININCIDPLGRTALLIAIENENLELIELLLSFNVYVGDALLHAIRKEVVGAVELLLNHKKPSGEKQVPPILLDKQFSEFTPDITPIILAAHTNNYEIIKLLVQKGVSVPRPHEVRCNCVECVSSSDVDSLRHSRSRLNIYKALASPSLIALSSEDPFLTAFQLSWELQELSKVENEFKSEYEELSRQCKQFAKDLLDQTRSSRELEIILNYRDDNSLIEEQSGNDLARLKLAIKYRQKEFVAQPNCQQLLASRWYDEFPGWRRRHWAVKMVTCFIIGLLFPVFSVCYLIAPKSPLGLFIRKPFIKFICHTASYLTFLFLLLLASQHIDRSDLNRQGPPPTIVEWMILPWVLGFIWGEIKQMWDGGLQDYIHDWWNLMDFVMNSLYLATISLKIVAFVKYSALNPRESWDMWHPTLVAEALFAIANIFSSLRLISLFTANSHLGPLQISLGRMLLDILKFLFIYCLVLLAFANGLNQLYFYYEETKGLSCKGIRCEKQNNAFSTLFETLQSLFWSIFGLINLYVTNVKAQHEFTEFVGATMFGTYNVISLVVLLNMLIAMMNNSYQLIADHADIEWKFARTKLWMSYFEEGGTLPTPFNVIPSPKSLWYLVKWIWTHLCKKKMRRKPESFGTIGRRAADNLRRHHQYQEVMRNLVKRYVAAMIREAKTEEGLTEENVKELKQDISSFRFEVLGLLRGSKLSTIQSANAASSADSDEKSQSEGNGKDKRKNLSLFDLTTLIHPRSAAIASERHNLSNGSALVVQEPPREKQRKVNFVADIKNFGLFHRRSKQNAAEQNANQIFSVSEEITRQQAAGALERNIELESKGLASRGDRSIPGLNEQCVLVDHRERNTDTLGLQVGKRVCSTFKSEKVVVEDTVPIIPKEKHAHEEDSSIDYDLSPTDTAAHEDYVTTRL

Cytochrome P450 2C9 = Cytochrome P450 2C9 (Homo sapiens, UniProt P11712)
Sequence of Cytochrome P450 2C9 (P11712 whole entry): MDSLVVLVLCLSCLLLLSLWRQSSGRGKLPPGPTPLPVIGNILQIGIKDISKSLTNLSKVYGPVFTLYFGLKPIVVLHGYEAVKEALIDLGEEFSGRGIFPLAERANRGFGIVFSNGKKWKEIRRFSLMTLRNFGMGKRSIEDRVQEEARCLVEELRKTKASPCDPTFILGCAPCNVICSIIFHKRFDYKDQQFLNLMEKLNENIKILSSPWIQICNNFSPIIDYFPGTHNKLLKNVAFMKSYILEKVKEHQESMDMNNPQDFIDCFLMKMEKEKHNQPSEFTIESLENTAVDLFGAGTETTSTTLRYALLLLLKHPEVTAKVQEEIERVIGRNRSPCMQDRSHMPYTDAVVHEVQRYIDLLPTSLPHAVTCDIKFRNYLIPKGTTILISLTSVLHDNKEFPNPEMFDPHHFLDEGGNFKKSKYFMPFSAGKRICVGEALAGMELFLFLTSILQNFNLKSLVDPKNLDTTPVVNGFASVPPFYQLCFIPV

[13] = IGROV1 cell killing – plate reader, dry powder samples, PAX8 inhibitor project, dose response (AID 743043); format: functional, cell-based; conditions: IGROV-1
[14] = OVCAR-3 cell viability loss – plate reader, dry powder samples, PAX8 inhibitor project, dose response (AID 743044); format: functional, cell-based
[15] = OVCAR8 cell viability loss – plate reader, dry powder samples, PAX8 project, dose response (AID 743197); format: functional, cell-based; conditions: OVCAR-8
Paired box protein Pax-8 = Paired box protein Pax-8 (Homo sapiens, UniProt Q06710); assay: PAX8 transcriptional activity inhibition in RMG-I – RMG-I cells, luciferase, cherry-pick, dose response (AID 687027); format: functional, cell-based;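 also: luciferase reporter driven by Pax8 target thyroperoxidase promoter measured by SteadyGlo luminescence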
Sequence of Paired box protein Pax-8 (Q06710 whole entry): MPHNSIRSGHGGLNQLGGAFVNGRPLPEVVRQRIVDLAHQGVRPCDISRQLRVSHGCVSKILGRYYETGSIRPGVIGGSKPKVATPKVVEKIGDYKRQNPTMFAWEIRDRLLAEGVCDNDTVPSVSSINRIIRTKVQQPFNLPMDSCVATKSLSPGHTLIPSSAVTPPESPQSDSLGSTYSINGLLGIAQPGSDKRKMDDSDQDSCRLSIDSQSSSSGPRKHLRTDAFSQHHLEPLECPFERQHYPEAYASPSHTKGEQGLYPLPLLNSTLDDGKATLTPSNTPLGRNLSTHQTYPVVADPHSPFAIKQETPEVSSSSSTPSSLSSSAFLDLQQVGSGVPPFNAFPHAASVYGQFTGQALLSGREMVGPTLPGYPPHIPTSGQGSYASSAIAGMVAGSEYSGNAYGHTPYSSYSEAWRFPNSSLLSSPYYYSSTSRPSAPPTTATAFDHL

[16] = alpha-synuclein stem-loop luciferase translation blockers – H4 neuroglioma cells, luminescence, confirmation (AID 1988); format: functional, cell-based
cells [17] = format: functional, cell-based
[18] = Luminescence Cell-Based Dose Response HTS to Identify Inhibitors of 5'UTR Stem-Loop Driven Prion Protein mRNA Translation in H4 Neuroglioblastoma Cells. [Related pubchem assays: 1827 (Project Summary), 1813 (Primary HTS)]; format: functional
Nonstructural protein 1 = Nonstructural protein 1 (Influenza A virus, UniProt Q194T2); format: functional, Influenza A virus (A/California/07/2009(H1N1))
cells [19] = format: functional, cell-based; remark: listed apart in the source
[20] = luciferase reporter signal suppression in cells – H4 neuroglioma cells, luminescence, dose response (AID 1990); format: functional, cell-based
[21] = P. falciparum Dd2 growth inhibitors, dose response, SYBR Green, cherry-picked samples (AID 1159567); format: functional, cell-based
[22] = Dd2 malaria parasite growth inhibition potency – SYBR Green, dry powder samples, dose response (AID 1159566); format: functional, cell-based;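 also: potency for growth inhibition with lower SYBR green DNA signal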
[23] = growth inhibition of yeast DHODH-expressing 3D7 parasites – SYBR Green, dry powder samples, dose response (AID 1159570); format: functional, cell-based;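 also: parasite growth measured after 72 hours of compound exposure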
[24] = growth inhibition of PfATP4-mutant resistant parasites – NITD609-resistant line, SYBR Green, dry powder, dose response (AID 1159571); format: functional, cell-based;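 also: parasites synchronized at ring stage by sorbitol before testing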

## CCN(CC)CCCNC(=O)CC1Sc2ccccc2NC1=O (stereo unspecified)
[1]
  IC50: > 64 µM (inactive)

## COc1cc(NC(=O)c2ccccc2)ccc1NC(=O)c1cc2ccccc2o1
[2]
  IC50: > 56.8 µM (not active)
[3]
  IC50: > 50 µM (inactive)

## O=C(CCn1cnc2ccccc2c1=O)Nc1ccc(S(=O)(=O)N2CCCCC2)cc1
[4]
  IC50: 38.4 µM (not active)

## CCOC(=O)CCCc1sc(N)nc1-c1[nH]c(O)nc1C
[4]
  IC50: > 93.1 µM (not active)

## CCOC(=O)c1cnc(-c2ccccc2)nc1Oc1ccc(Cl)cc1
Cytochrome P450 2D6
  AC50: inconclusive

## Cc1cccn2cc(COc3ccc(-c4ccccc4)cc3)nc12
Vero [5]
  CC50: > 25 µM (active)
Vero [6]
  IC50: 11.6 µM (active)

## COc1ccc(CC(=O)Nc2cc(C)ccn2)cc1
[4]
  IC50: 21.4 µM (not active)

## CCC(=O)Nc1ccc(C(=O)NNC(=O)c2cc([N+](=O)[O-])cc([N+](=O)[O-])c2)cc1
Cells [7]
  IC50: 10.3 µM (active)
[8]
  CC50: > 40 µM (active)

## COc1ccc(N2C(=O)NC(=O)/C(=C\c3ccc([N+](=O)[O-])s3)C2=O)cc1
[2]
  IC50: 18.2 µM (active)
[9]
  EC50: > 60 µM (inconclusive)
[10]
  EC50: 3.77 µM (active)
Genome polyprotein
  IC50: 39.1 µM (active)
[11]
  AC50: > 20 µM (inactive)
[3]
  IC50: 10.3 µM (active)

## CCOc1cc(CNCCCN2CCOCC2)ccc1OCC(=O)Nc1cccc2ccccc12
Vero [5]
  CC50: > 25 µM (active)
Vero [6]
  IC50: 18.6 µM (active)

## CC(C)CN(CC(C)C)c1ccc(C=C2C(=O)NC(=S)NC2=O)cc1[N+](=O)[O-]
[12]
  EC50: 1.88 µM (active)
[1]
  IC50: 42.1 µM (inactive)
Genome polyprotein
  IC50: 15.9 µM (active)

## CCN1CCCC1CNC(=O)C(=O)Nc1ccccc1OC (stereo unspecified)
Cytochrome P450 2C9
  AC50: inconclusive
Cytochrome P450 2D6
  AC50: inconclusive

## Clc1ccc(-n2nnnc2CN2CCOCC2)cc1
Cytochrome P450 2C9
  AC50: inconclusive
Cytochrome P450 2D6
  AC50: inconclusive

## Cc1ccc(S(=O)(=O)Nc2ccc3c(c2)C(=O)N([C@@H](C)CO)C[C@H](C)[C@@H](CN(C)Cc2ccc(C(F)(F)F)cc2)OCCCC[C@H](C)O3)cc1
[13]
  AC50: 29.5 µM (active)
[14]
  AC50: 24.1 µM (active)
[15]
  AC50: 46.9 µM (active)
Paired box protein Pax-8
  AC50: 7.48 µM (active)

## C[C@@H]1CN([C@H](C)CO)C(=O)c2cc(NS(=O)(=O)c3ccc(Cl)cc3)ccc2O[C@@H](C)CCCCO[C@@H]1CN(C)CC1CCCCC1
[13]
  AC50: 44.4 µM (active)
[14]
  AC50: 9.37 µM (active)
[15]
  AC50: 18.8 µM (active)
Paired box protein Pax-8
  AC50: 9.23 µM (active)

## C[C@H]1CCCCO[C@H](CN(C)C(=O)Nc2ccc(C(F)(F)F)cc2)[C@@H](C)CN([C@@H](C)CO)C(=O)c2cc(NS(=O)(=O)c3ccccc3)ccc2O1
[13]
  AC50: 40.6 µM (active)
[15]
  AC50: 45.8 µM (active)
Paired box protein Pax-8
  AC50: 6.7 µM (active)

## O=[N+]([O-])c1cccc(/C=N/Nc2nc(NCc3ccccc3)nc(N3CCOCC3)n2)c1O
[16]
  EC50: 15 µM (active)
Cells [17]
  EC50: 13.4 µM (active)
Vero [5]
  CC50: 14.7 µM (active)
[18]
  EC50: 14.1 µM (active)
Vero [6]
  IC50: 12.2 µM (active)
Nonstructural protein 1
  IC50: 6.2 µM (active)
Cells [19]
  EC50: > 350 µM (not active)
[20]
  EC50: 11.4 µM (active)

## O=C(Nc1ccccc1F)N1CCCCN2[C@@H](CO)[C@H](c3ccc(C#Cc4cccnc4)cc3)[C@@H]2C1
[21]
  AC50: 1.1 µM (active)
[22]
  AC50: 0.949 µM (active)
[23]
  AC50: 0.652 µM (active)
[24]
  AC50: 0.824 µM (active)

## O=C(O)[C@H]1C[C@H](C(=O)O)N1
Cytochrome P450 2D6
  AC50: inconclusive

## Cc1cc(O)ccc1-c1cnc2ccccc2n1
[4]
  IC50: 28.1 µM (not active)
